Values quoted from earlier work as cited in patent EP4135668B1, “SOLID ORAL DOSAGE FORM COMPRISING POMALIDOMIDE” (Tecnimede, Sociedade Técnico-Medicinal, SA, priority 2020, dated 2021).

Details: low aqueous solubility and low permeability active compound

Biopharmaceutics Classification System (BCS) class: Class IV
Structure (SMILES): Nc1cccc2c1C(=O)N(C1CCC(=O)NC1=O)C2=O (stereo not shown) [Pomalidomide, 4-amino-2-(2,6-dioxopiperidine-3-yl)isoindoline-l,3-dione]
